Columns and labels:
MtbFolB [1] = biological target: T1, MtbFolB (Mycobacterium tuberculosis, UniProt P9WNC5); assay: biochemical; details: read-out: % inhibition
T1 sequence (P9WNC5 1-133): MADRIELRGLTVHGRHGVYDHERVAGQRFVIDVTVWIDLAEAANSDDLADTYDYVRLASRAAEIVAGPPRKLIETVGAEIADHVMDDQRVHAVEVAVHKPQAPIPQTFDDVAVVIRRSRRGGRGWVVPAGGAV

MtbFolB [2] = biological target: T1, MtbFolB; assay: end-point fluorescence assay; format: biochemical
MtbFolB [3] = biological target: T1, MtbFolB; assay: biochemical
MtbFolB [4] = biological target: T1, MtbFolB; assay: primary screen, end-point fluorescence assay, 384-well, […] h; format: biochemical; details: 5 µM DHNP, 14 nM enzyme, pH 8.0, 24 °C, 1% DMSO

| Structure (SMILES) | inhibition at 20 µM (MtbFolB [1]) [%] | IC50 (MtbFolB [2]) [µM] | further results |
| --- | --- | --- | --- |
| O=C(CCC(=O)c1ccc(-c2ccccc2)cc1)Nc1nncs1 [compound 2] | 53.2 | – | – |
| CC(=O)Nc1ccc(NS(=O)(=O)c2ccc(Br)s2)cc1 [compound 34, 34] | – | > 100 | – |
| CN(C)c1ccc(NS(=O)(=O)c2ccc(-c3ccc(C(F)(F)F)cc3)cc2)cc1 [compound 29, 29] | – | > 100 | – |
| O=C(Nc1nc2ccccc2n1Cc1ccc(F)cc1)C1CCC(F)(F)CC1 [compound 14] | 36.6 | – | – |
| Cc1cc(=O)n(-c2ccccc2)n1C(=O)Cc1cccs1 [compound 3, 3] | 52.5 | 30.1 | IC50 (MtbFolB [3]): 250 ± 30 µM |
| O=S(=O)(Nc1ccc(N2CCN(S(=O)(=O)c3ccc(Br)s3)CC2)cc1)c1ccc(Br)s1 [compound 39, 39] | – | 10.6 | – |
| O=S(=O)(Nc1ccc(-n2ccnc2)cc1)c1ccc(Br)s1 [compound 33, 33] | – | > 100 | – |
| Cc1ccc(-n2c(=O)cc(C)n2C(=O)Cc2cccs2)cc1C [compound 9, 9] | 40.8 | – | IC50 (MtbFolB [3]): 434 ± 64 µM |
| Cc1cc(=O)n(-c2ccccc2)n1C(=O)c1ccc(Cl)cc1 [compound 21, 21] | 29.8 | 34.4 | – |
| O=S(=O)(NCc1ccc(N2CCC(c3ccc(OC(F)(F)F)cc3)CC2)cc1)c1ccc(Br)s1 [compound 38, 38] | – | > 100 | – |
| Cc1cc(=O)n(-c2ccccc2)n1C(=O)C(C)Oc1ccccc1 (stereo not drawn) [compound 20, 20] | 29.9 | 23.1 | IC50 (MtbFolB [3]): 362 ± 82 µM |
| CN(C)c1ccc(NS(=O)(=O)c2cnn(C)c2)cc1 [compound 25, 25] | – | 6.8 | – |
| CN(C)c1ccc(NS(=O)(=O)c2ccc3ccn(C)c3c2)cc1 [compound 24, 24] | – | > 100 | – |
| Cc1ccc(-n2c(=O)cc(C)n2C(=O)C(C)Oc2ccccc2)cc1C (stereo not drawn) [compound 22, 22] | 29.2 | 13.5 | IC50 (MtbFolB [3]): 172 ± 14 µM |
| CCc1cc(N2CCC[C@@H](O)C2)ccc1NS(=O)(=O)c1ccc(Br)s1 [compound 35, 35] | – | 29.1 | – |
| CC(C)c1ccc(C(C)NS(=O)(=O)c2ccc(Br)s2)cc1 (stereo not drawn) [compound 37, 37] | – | > 100 | – |
| O=C1NCN(c2ccccc2)C12CCN(CC(O)COc1ccccc1C1CCCC1)CC2 (stereo not drawn) [compound 17, 17] | – | – | % inhibition at 20 μM (MtbFolB [4]): 32.9% |
| COc1ccc(CC(=O)n2c(C)cc(=O)n2-c2ccccc2)cc1 [compound 16, 16] | 35.1 | – | – |
| O=C(Nc1nc2ccccc2n1Cc1ccc(F)cc1)C1CCC(F)(F)CC1 [compound 14, 14] | – | 17.2 | – |
| O=S(=O)(Nc1ccc(N2CCCCC2)cc1)c1ccc(Br)s1 [compound 32, 32] | – | 11.3 | – |
| Cc1noc(C)c1S(=O)(=O)Nc1ccc(N(C)C)cc1 [compound 27, 27] | – | 9.2 | – |
| O=C(CCC(=O)c1ccc(-c2ccccc2)cc1)Nc1nncs1 [compound 2, 2] | – | 8 | – |

Reference: article doi:10.1101/2023.11.21.567704v1 (biorxiv, 2023)
